Laboratory results published in ChEMBL document CHEMBL5625187, “A facile and selective derivatization approach on kynurenine-NH2 in daptomycin, leading to the discovery of hexakynomycin to combat multidrug-resistant Gram-positive pathogens especially daptomycin-resistant bacteria” (Eur J Med Chem, 2023).
Converted amounts (≈) assume the structure as drawn. The source made the active and inactive calls. No cut-off for these calls is given here.

Assays:
[1] = tested on: Staphylococcus aureus; assay: Antibacterial activity against methicillin-resistant Staphylococcus aureus clinical isolate 20-3 assessed as reduction in microbial growth incubated for 24 hrs by broth microdilution method; format: functional
[2] = tested on: Staphylococcus aureus; assay: Antibacterial activity against methicillin-resistant Staphylococcus aureus clinical isolate 20-2 assessed as reduction in microbial growth incubated for 24 hrs by broth microdilution method; format: functional
[3] = tested on: Staphylococcus aureus; assay: Induction of drug resistance against Staphylococcus aureus Newman ATCC 25904 assessed as fold increase in MIC after 15 days by broth microdilution method; format: functional; conditions: time 15.0 day
[4] = tested on: Staphylococcus aureus; assay: Antibacterial activity against vancomycin-intermediate resistant Staphylococcus aureus ATCC 700699 assessed as reduction in microbial growth incubated for 24 hrs by broth microdilution method; format: functional
[5] = tested on: Erythrocyte; assay: Hemolytic activity in rat RBC at 400 ug/ml incubated for 1 hr; format: toxicity, cell-based; conditions: dose 400 µg/ml
[6] = tested on: Enterococcus faecalis; assay: Antibacterial activity against Enterococcus faecalis ATCC 29212 assessed as reduction in microbial growth incubated for 24 hrs by broth microdilution method; format: functional
[7] = tested on: Staphylococcus aureus; assay: Antibacterial activity against Staphylococcus aureus assessed as reduction in bacterial growth incubated for 16 to 24 hrs in presence of MHB medium by serial dilution method; format: functional; conditions: time 16-24 hrs
[8] = tested on: Staphylococcus aureus; assay: Antibacterial activity against methicillin-resistant Staphylococcus aureus clinical isolate 20-3 infected in iv dosed Kunming mouse model assessed as increase in survival measured after 14 days; format: functional; conditions: Clinical isolate 20-3, 336 h, time 14 day
[9] = tested on: Staphylococcus aureus; assay: Induction of membrane disruption in Staphylococcus aureus at 4 to 16 ug/ml incubated for 4 hrs by propidium iodide staining based flow cytometric analysis; format: functional, organism-based; conditions: dose 4-16 µg/ml
[10] = tested on: Staphylococcus aureus; assay: Antibacterial activity against Staphylococcus aureus assessed as reduction in bacterial growth incubated for 16 to 24 hrs in presence of PG by serial dilution method; format: functional; conditions: time 16-24 hrs
[11] = tested on: Staphylococcus aureus; assay: Antibacterial activity against methicillin-susceptible Staphylococcus aureus ATCC 29213 assessed as reduction in microbial growth incubated for 24 hrs by broth microdilution method; format: functional
[12] = tested on: Staphylococcus aureus; assay: Ratio of MIC for antibacterial activity against Staphylococcus aureus in presence of MHB medium to MIC for antibacterial activity against Staphylococcus aureus CAMHB medium; format: functional
[13] = Observed volume of distribution at steady state in CD-1 mouse at 1 mg/kg, iv measured up to 24 hrs by UPLC-MS analysis; format: ADME, organism-based; conditions: in vivo, read-out: Vdss
[14] = tested on: Enterococcus faecium; assay: Antibacterial activity against glycopeptide-resistant Enterococcus faecium Efm-HS-0649 assessed as reduction in microbial growth incubated for 24 hrs by broth microdilution method; format: functional
[15] = tested on: Staphylococcus aureus; assay: Antibacterial activity against Staphylococcus aureus assessed as reduction in bacterial growth incubated for 16 to 24 hrs by serial dilution method; format: functional; conditions: time 16-24 hrs
[16] = tested on: Enterococcus faecalis; assay: Antibacterial activity against vancomycin-resistant Enterococcus faecalis VREfa 20-1 assessed as reduction in microbial growth incubated for 24 hrs by broth microdilution method; format: functional
[17] = tested on: Staphylococcus aureus; assay: Ratio of MIC for antibacterial activity against Staphylococcus aureus in presence of PG to MIC for antibacterial activity against Staphylococcus aureus; format: functional
[18] = tested on: Staphylococcus aureus; assay: Antibacterial activity against methicillin-susceptible Staphylococcus aureus clinical isolate 20-1 assessed as reduction in microbial growth incubated for 24 hrs by broth microdilution method; format: functional
[19] = tested on: Enterococcus faecalis; assay: Antibacterial activity against Enterococcus faecalis EFA 20-1 assessed as reduction in microbial growth incubated for 24 hrs by broth microdilution method; format: functional
[20] = tested on: Staphylococcus aureus; assay: Antibacterial activity against methicillin-resistant Staphylococcus aureus clinical isolate 20-1 assessed as reduction in microbial growth incubated for 24 hrs by broth microdilution method; format: functional
[21] = tested on: Staphylococcus aureus; assay: Antibacterial activity against methicillin-resistant Staphylococcus aureus USA300 assessed as reduction in microbial growth incubated for 24 hrs by broth microdilution method; format: functional
[22] = tested on: Staphylococcus aureus; assay: Antibacterial activity against vancomycin-intermediate resistant Staphylococcus aureus Mu 50 assessed as reduction in microbial growth incubated for 24 hrs by broth microdilution method; format: functional
[23] = tested on: Staphylococcus aureus; assay: Antibacterial activity against methicillin-susceptible Staphylococcus aureus Newman ATCC 25904 assessed as reduction in microbial growth incubated for 24 hrs by broth microdilution method; format: functional
[24] = tested on: Enterococcus faecium; assay: Antibacterial activity against Enterococcus faecium EFM 20-1 assessed as reduction in microbial growth incubated for 24 hrs by broth microdilution method; format: functional
[25] = tested on: Staphylococcus aureus; assay: Antibacterial activity against Staphylococcus aureus assessed as reduction in bacterial growth incubated for 16 to 24 hrs in presence of CAMHB medium by serial dilution method; format: functional; conditions: time 16-24 hrs
[26] = tested on: Enterococcus faecalis; assay: Potency index, ratio of daptomycin MIC to test compound MIC for antibacterial activity against Enterococcus faecalis ATCC 29212; format: functional
[27] = Solubility of compound in saline at >10 mg/ml at room temperature; format: physicochemical; conditions: buffer
[28] = tested on: Enterococcus faecium; assay: Potency index, ratio of daptomycin MIC to test compound MIC for antibacterial activity against Enterococcus faecium EFM 20-1; format: functional
[29] = tested on: Staphylococcus aureus; assay: Antibacterial activity against Staphylococcus aureus infected in zebra fish model assessed as survival rate at 10 mg/kg, ip after 8 hrs by relative to control; format: functional
[30] = tested on: Staphylococcus aureus; assay: Antibacterial activity against Staphylococcus aureus infected in zebra fish model assessed as survival rate at 10 mg/kg, ip after 24 hrs by relative to control; format: functional
[31] = Toxicity in ICR mouse excisional wound model infected with Staphylococcus aureus Newman ATCC 25904 assessed as survival at 20 mg/kg administered topically for 7 days; format: organism-based; conditions: in vivo, topical_or_ocular, 168 h, route top, time 7 day
[32] = tested on: Staphylococcus aureus; assay: Potency index, ratio of daptomycin MIC to test compound MIC for antibacterial activity against methicillin-susceptible Staphylococcus aureus clinical isolate 20-1; format: functional
[33] = Half life in PBS at pH 7.2 to 7.4 at 37 degC for 24 hrs; format: ADME
[34] = tested on: Enterococcus faecium; assay: Potency index, ratio of daptomycin MIC to test compound MIC for antibacterial activity against glycopeptide-resistant Enterococcus faecium Efm-HS-0649; format: functional
[35] = tested on: Staphylococcus aureus; assay: Potency index, ratio of daptomycin MIC to test compound MIC for antibacterial activity against methicillin-susceptible Staphylococcus aureus Newman ATCC 25904; format: functional
[36] = tested on: HEK293; assay: Cytotoxicity against HEK293 cells assessed as reduction in cell viability at 80 ug/ml after 72 hrs by CCK-8 assay relative to control; format: toxicity, cell-based; conditions: human, hek293, 72 h, at 80 µg/mL
[37] = Solubility of compound in deionized water at >10 mg/ml at room temperature; format: physicochemical; conditions: buffer
[38] = Toxicity in ICR mouse excisional wound model infected with Staphylococcus aureus Newman ATCC 25904 assessed as change in weight at 20 mg/kg administered topically for 7 days; format: organism-based; conditions: in vivo, topical_or_ocular, 168 h, route top, time 7 day
[39] = tested on: Enterococcus faecalis; assay: Potency index, ratio of daptomycin MIC to test compound MIC for antibacterial activity against Enterococcus faecalis EFA 20-1; format: functional
[40] = tested on: Staphylococcus aureus; assay: Potency index, ratio of daptomycin MIC to test compound MIC for antibacterial activity against methicillin-susceptible Staphylococcus aureus ATCC 29213; format: functional
[41] = tested on: Staphylococcus aureus; assay: Antimicrobial activity in Staphylococcus aureus Newman ATCC 25904 infected in ICR mouse excisional wound model assessed as decrease in bacterial growth at 20 mg/kg administered topically and measured after 24 hrs relative to control; format: functional; design: scale not given: the % may be the effect or the level left; conditions: route top

Q: With CCCCCCCCCC(=O)N[C@@H](Cc1c[nH]c2ccccc12)C(=O)N[C@H](CC(N)=O)C(=O)N[C@@H](CC(=O)O)C(=O)N[C@@H]1C(=O)NCC(=O)N[C@@H](CCCN)C(=O)N[C@@H](CC(=O)O)C(=O)N[C@H](C)C(=O)N[C@@H](CC(=O)O)C(=O)NCC(=O)N[C@H](CO)C(=O)N[C@@H]([C@H](C)CC(=O)O)C(=O)N[C@@H](CC(=O)c2ccccc2N)C(=O)O[C@@H]1C as the compound, how does the MIC [1] read?
A: 1 µg/mL

Q: What about the MIC [2] of the same compound?
A: 1 µg/mL

Q: And the fold change (FC) [3]?
A: 4

Q: And the MIC [4]?
A: 8 µg/mL

Q: And the Activity [5]?
A: Non-Toxic

Q: What about the MIC [6] of the same compound?
A: 4 µg/mL

Q: What about the MIC [7] of the same compound?
A: 64 µg/mL

Q: And the ED50 [8]?
A: 0.2 mg/kg

Q: What about the Activity [9] of the same compound?
A: Active

Q: And the MIC [10]?
A: 128 µg/mL

Q: What about the MIC [11] of the same compound?
A: 1 µg/mL

Q: What about the Ratio [12] of the same compound?
A: 16

Q: And the Vd [13]?
A: 0.115 L/kg

Q: What about the MIC [14] of the same compound?
A: 8 µg/mL

Q: And the MIC [15]?
A: 4 µg/mL (≈ 2.47 µM)

Q: What about the MIC [16] of the same compound?
A: 8 µg/mL

Q: What about the Ratio [17] of the same compound?
A: 32

Q: And the MIC [18]?
A: 1 µg/mL

Q: And the MIC [19]?
A: 4 µg/mL

Q: And the MIC [20]?
A: 1 µg/mL

Q: And the MIC [21]?
A: 2 µg/mL

Q: And the MIC [22]?
A: 8 µg/mL

Q: What about the MIC [23] of the same compound?
A: 2 µg/mL

Q: And the MIC [24]?
A: 8 µg/mL

Q: What about the MIC [25] of the same compound?
A: 4 µg/mL

Q: Which results are given for CCCCCCCCCC(=O)N[C@@H](Cc1c[nH]c2ccccc12)C(=O)N[C@H](CC(N)=O)C(=O)N[C@@H](CC(=O)O)C(=O)N[C@@H]1C(=O)NCC(=O)N[C@@H](CCCN)C(=O)N[C@@H](CC(=O)O)C(=O)N[C@H](C)C(=O)N[C@@H](CC(=O)O)C(=O)NCC(=O)N[C@H](CO)C(=O)N[C@@H]([C@H](C)CC(=O)O)C(=O)N[C@@H](CC(=O)c2ccccc2NCCCCCC)C(=O)O[C@@H]1C?
A: MIC [1]: ≤ 0.008 µg/mL; MIC [2]: 0.03 µg/mL; fold change (FC) [3]: 4; MIC [4]: 2 µg/mL; Activity [5]: Non-Toxic; MIC [6]: 0.5 µg/mL; MIC [7]: 4 µg/mL; Ratio [26]: >=4; solubility [27]: Soluble; Ratio [28]: >=4; ED50 [8]: 0.29 mg/kg; survival at 10 mg/kg [29]: 37.5%; Activity [9]: Active; MIC [10]: 256 µg/mL; survival at 10 mg/kg [30]: 25%; Activity [31]: Non-Toxic; MIC [11]: ≤ 0.008 µg/mL; Ratio [32]: >=4; half-life [33]: 19 days; Ratio [12]: 8; Ratio [34]: 4; Ratio [35]: 4; Vd [13]: 0.2 L/kg; Activity [36]: ~ 100%; MIC [14]: 0.25 µg/mL; MIC [15]: 0.5 µg/mL (≈ 0.293 µM); MIC [16]: 0.5 µg/mL; Ratio [17]: 512; solubility [37]: Soluble; Activity [38]: Non-Toxic; Ratio [39]: >=4; MIC [18]: 0.015 µg/mL; MIC [19]: 0.5 µg/mL; MIC [20]: ≤ 0.008 µg/mL; MIC [21]: 0.125 µg/mL; MIC [22]: 2 µg/mL; MIC [23]: 0.5 µg/mL; MIC [24]: 1 µg/mL; MIC [25]: 0.5 µg/mL; Ratio [40]: >=4; Activity [41]: 100%
